Measurements from article PMC5218480 (PLoS ONE, 2017).

System: MV-4-11 cells
Experiment: Gene expression microarray analysis (Affymetrix PrimeView) and GSEA
Format: cell-based, human
Parameters: RFU PODN (11730768_x_at) / Fold change /veh PODN (11730768_x_at) / RFU LINC00158 (11744669_a_at) / Fold change /veh LINC00158 (11744669_a_at) / RFU DUSP10 (11751237_a_at) / Fold change /veh DUSP10 (11751237_a_at) / RFU ID3 (11757404_x_at) / Fold change /veh ID3 (11757404_x_at) / RFU PLEKHG5 (11737974_s_at) / Fold change /veh PLEKHG5 (11737974_s_at) / RFU LRRC4B (11730491_at) / Fold change /veh LRRC4B (11730491_at) / RFU GIMAP4 (11747438_a_at) / Fold change /veh GIMAP4 (11747438_a_at) / RFU KRT8 (11758183_x_at) / Fold change /veh KRT8 (11758183_x_at) / RFU CNN1 (11734310_a_at) / Fold change /veh CNN1 (11734310_a_at) / RFU VPS37D (11726825_at) / Fold change /veh VPS37D (11726825_at) / RFU C10orf10 (11716522_x_at) / Fold change /veh C10orf10 (11716522_x_at) / RFU KIR2DL2 /// KIR2DL4 /// KIR2DL5A /// KIR2DL5B /// KIR2DS1 /// KIR2DS2 /// KIR2DS3 /// KIR2DS4 /// KIR3DL3 /// KIR3DL3 /// KIR3DS1 (11738374_at) / Fold change /veh KIR2DL2 /// KIR2DL4 /// KIR2DL5A /// KIR2DL5B /// KIR2DS1 /// KIR2DS2 /// KIR2DS3 /// KIR2DS4 /// KIR3DL3 /// KIR3DL3 /// KIR3DS1 (11738374_at) / RFU C1QL1 (11718748_at) / Fold change /veh C1QL1 (11718748_at) / RFU TMPRSS4 (11747572_a_at) / Fold change /veh TMPRSS4 (11747572_a_at) / RFU HAMP (11756126_x_at) / Fold change /veh HAMP (11756126_x_at) / RFU RNFT2 (11725882_a_at) / Fold change /veh RNFT2 (11725882_a_at) / RFU NR4A2 (11747474_a_at) / Fold change /veh NR4A2 (11747474_a_at) / RFU ABCC12 (11746883_a_at) / Fold change /veh ABCC12 (11746883_a_at) / RFU TMEM136 (11760407_x_at) / Fold change /veh TMEM136 (11760407_x_at) / RFU CLDN22 /// WWC2 (11732394_at) / Fold change /veh CLDN22 /// WWC2 (11732394_at) / RFU HLA-DPB1 (11760878_x_at) / Fold change /veh HLA-DPB1 (11760878_x_at) / RFU SPINT1 (11716480_a_at) / Fold change /veh SPINT1 (11716480_a_at) / RFU GAP43 (11754022_s_at) / Fold change /veh GAP43 (11754022_s_at) / RFU A4GNT (11735810_at) / Fold change /veh A4GNT (11735810_at) / RFU PRB3 (11715151_x_at) / Fold change /veh PRB3 (11715151_x_at) / RFU TUBB4B (11761932_at) / Fold change /veh TUBB4B (11761932_at) / RFU CAPN14 (11732068_a_at) / Fold change /veh CAPN14 (11732068_a_at) / RFU TMCC2 (11721928_a_at) / Fold change /veh TMCC2 (11721928_a_at) / RFU IRGQ (11745062_a_at) / Fold change /veh IRGQ (11745062_a_at) / RFU FAM174B (11720279_a_at) / Fold change /veh FAM174B (11720279_a_at) / RFU TMPRSS4 (11748680_a_at) / Fold change /veh TMPRSS4 (11748680_a_at) / RFU FAM212B (11763350_a_at) / Fold change /veh FAM212B (11763350_a_at) / RFU PLEKHG5 (11743358_a_at) / Fold change /veh PLEKHG5 (11743358_a_at) / RFU ZSCAN30 (11745921_a_at) / Fold change /veh ZSCAN30 (11745921_a_at) / RFU CMKLR1 (11741424_a_at) / Fold change /veh CMKLR1 (11741424_a_at) / RFU LOC101060620 /// MAPK8IP1 (11723275_at) / Fold change /veh LOC101060620 /// MAPK8IP1 (11723275_at) / RFU SPTSSB (11747773_x_at) / Fold change /veh SPTSSB (11747773_x_at) / RFU PRSS12 (11739890_at) / Fold change /veh PRSS12 (11739890_at) / RFU BIN1 (11741810_x_at) / Fold change /veh BIN1 (11741810_x_at) / RFU WNT11 (11732464_a_at) / Fold change /veh WNT11 (11732464_a_at) / RFU C10orf10 (11716521_a_at) / Fold change /veh C10orf10 (11716521_a_at) / RFU C5orf56 (11738089_at) / Fold change /veh C5orf56 (11738089_at) / RFU CYB561 (11721691_x_at) / Fold change /veh CYB561 (11721691_x_at) / RFU ANKRD19P (11752326_a_at) / Fold change /veh ANKRD19P (11752326_a_at) / RFU OR2T12 /// OR2T33 /// OR2T8 (11738714_s_at) / Fold change /veh OR2T12 /// OR2T33 /// OR2T8 (11738714_s_at) / RFU VCAN (11748164_a_at) / Fold change /veh VCAN (11748164_a_at) / RFU JSRP1 (11732532_at) / Fold change /veh JSRP1 (11732532_at) / RFU KRTAP10-11 (11738290_x_at) / Fold change /veh KRTAP10-11 (11738290_x_at) / RFU MYO3A (11730013_a_at) / Fold change /veh MYO3A (11730013_a_at) / RFU EBF3 (11725865_a_at) / Fold change /veh EBF3 (11725865_a_at) / RFU CAMK2N1 (11719241_x_at) / Fold change /veh CAMK2N1 (11719241_x_at) / RFU C5orf56 (11738088_a_at) / Fold change /veh C5orf56 (11738088_a_at) / RFU OLFML3 (11715873_a_at) / Fold change /veh OLFML3 (11715873_a_at) / RFU LOC100653217 /// NTM (11731650_a_at) / Fold change /veh LOC100653217 /// NTM (11731650_a_at) / RFU MAPK11 (11762145_a_at) / Fold change /veh MAPK11 (11762145_a_at) / RFU FIZ1 (11724087_x_at) / Fold change /veh FIZ1 (11724087_x_at) / RFU OASL (11726364_x_at) / Fold change /veh OASL (11726364_x_at) / RFU SOX15 (11748057_x_at) / Fold change /veh SOX15 (11748057_x_at) / RFU CD79A (11719716_a_at) / Fold change /veh CD79A (11719716_a_at) / RFU HIST1H1D (11736915_at) / Fold change /veh HIST1H1D (11736915_at) / RFU CASKIN2 (11723855_a_at) / Fold change /veh CASKIN2 (11723855_a_at) / RFU LOC730098 (11760151_x_at) / Fold change /veh LOC730098 (11760151_x_at) / RFU OR4N2 (11742367_at) / Fold change /veh OR4N2 (11742367_at) / RFU PRRT2 (11749266_a_at) / Fold change /veh PRRT2 (11749266_a_at) / RFU SNX32 (11753110_a_at) / Fold change /veh SNX32 (11753110_a_at) / RFU CDHR5 (11726645_a_at) / Fold change /veh CDHR5 (11726645_a_at) / RFU RCAN1 (11760418_a_at) / Fold change /veh RCAN1 (11760418_a_at) / RFU FAM167A (11723789_a_at) / Fold change /veh FAM167A (11723789_a_at) / RFU FAM26E (11764081_at) / Fold change /veh FAM26E (11764081_at) / RFU ISYNA1 (11749810_s_at) / Fold change /veh ISYNA1 (11749810_s_at) / RFU ACY1 (11761880_at) / Fold change /veh ACY1 (11761880_at) / RFU 11764098_at / Fold change /veh 11764098_at / RFU SAMD14 (11745864_x_at) / Fold change /veh SAMD14 (11745864_x_at) / RFU NPB (11741838_a_at) / Fold change /veh NPB (11741838_a_at) / RFU TMPRSS6 (11731388_a_at) / Fold change /veh TMPRSS6 (11731388_a_at) / RFU KRTAP10-2 (11738614_at) / Fold change /veh KRTAP10-2 (11738614_at) / RFU ARHGAP8 /// PRR5-ARHGAP8 (11727945_x_at) / Fold change /veh ARHGAP8 /// PRR5-ARHGAP8 (11727945_x_at) / RFU KRTAP5-7 /// NADSYN1 (11734609_at) / Fold change /veh KRTAP5-7 /// NADSYN1 (11734609_at) / RFU RASL12 (11751679_a_at) / Fold change /veh RASL12 (11751679_a_at) / RFU CDKN2B (11736163_a_at) / Fold change /veh CDKN2B (11736163_a_at) / RFU PRF1 (11729649_at) / Fold change /veh PRF1 (11729649_at) / RFU, ZNF638 /// ZNF638-IT1 / Fold change vs veh, ZNF638 /// ZNF638-IT1 / RFU, PANK3 / Fold change vs veh, PANK3 / RFU, SH3YL1 / Fold change vs veh, SH3YL1 / RFU, ZEB2 / Fold change vs veh, ZEB2 / RFU, NRIP1 / Fold change vs veh, NRIP1 / RFU, PTTG1IP / Fold change vs veh, PTTG1IP / RFU, CAPN2 / Fold change vs veh, CAPN2 / RFU, MED14 / Fold change vs veh, MED14 / RFU, SNORA58 / Fold change vs veh, SNORA58 / RFU, C1orf63 / Fold change vs veh, C1orf63 / RFU, LRRFIP1 / Fold change vs veh, LRRFIP1 / RFU, NDUFAF7 / Fold change vs veh, NDUFAF7 / RFU, SLC12A2 / Fold change vs veh, SLC12A2 / RFU, IBTK / Fold change vs veh, IBTK / RFU, ESF1 / Fold change vs veh, ESF1 / Fold change vs veh, TMEM50B / RFU, TAOK1 / Fold change vs veh, TAOK1 / RFU, ACBD3 / Fold change vs veh, ACBD3 / RFU, TMA16 / Fold change vs veh, TMA16 / RFU, RWDD3 / Fold change vs veh, RWDD3 / RFU, BCAT1 / Fold change vs veh, BCAT1 / RFU, EDEM3 / Fold change vs veh, EDEM3 / RFU, TMEM33 / Fold change vs veh, TMEM33 / RFU, WDR75 / Fold change vs veh, WDR75 / RFU, AHCTF1 / Fold change vs veh, AHCTF1 / RFU, TFRC / Fold change vs veh, TFRC / RFU, ZDHHC17 / Fold change vs veh, ZDHHC17 / RFU, NOM1 / Fold change vs veh, NOM1 / RFU, ARL8B / Fold change vs veh, ARL8B / RFU, ZBTB11 / Fold change vs veh, ZBTB11 / RFU, TAMM41 / Fold change vs veh, TAMM41 / RFU, KIAA1704 /// LOC100996395 / Fold change vs veh, KIAA1704 /// LOC100996395 / RFU, ING1 / Fold change vs veh, ING1 / RFU, TRMT61B / Fold change vs veh, TRMT61B / RFU, FUBP3 / Fold change vs veh, FUBP3 / RFU, TP53 / Fold change vs veh, TP53 / RFU, TNKS2 / Fold change vs veh, TNKS2 / RFU, ZFP14 / Fold change vs veh, ZFP14 / RFU, ACTR2 / Fold change vs veh, ACTR2 / RFU, PPP3R1 / Fold change vs veh, PPP3R1 / RFU, PIK3R1 / Fold change vs veh, PIK3R1 / RFU, HNRNPA1 / Fold change vs veh, HNRNPA1 / RFU, RNF170 / Fold change vs veh, RNF170 / RFU, ZNF28 / Fold change vs veh, ZNF28 / RFU, RNGTT / Fold change vs veh, RNGTT / RFU, OGT / Fold change vs veh, OGT / RFU, BRD1 / Fold change vs veh, BRD1 / RFU, MARS / Fold change vs veh, MARS / RFU, ZNF655 / Fold change vs veh, ZNF655 / RFU, FAHD1 / Fold change vs veh, FAHD1 / RFU, BDP1 / Fold change vs veh, BDP1 / RFU, LRRCC1 / Fold change vs veh, LRRCC1 / RFU, ARID1A / Fold change vs veh, ARID1A / RFU, ZNF146 / Fold change vs veh, ZNF146 / RFU, ZNF330 / Fold change vs veh, ZNF330 / RFU, GPN3 / Fold change vs veh, GPN3 / RFU, C9orf123 / Fold change vs veh, C9orf123 / RFU, N4BP2L2 / Fold change vs veh, N4BP2L2 / RFU, ARFIP1 / Fold change vs veh, ARFIP1 / RFU, FAM179B / Fold change vs veh, FAM179B / RFU, BCL10 / Fold change vs veh, BCL10 / RFU, UHRF1BP1L / Fold change vs veh, UHRF1BP1L / RFU, BET1 / Fold change vs veh, BET1 / RFU, CNOT2 / Fold change vs veh, CNOT2 / RFU, ZNF268 / Fold change vs veh, ZNF268 / Fold change vs veh, ZNF507 / RFU, DGCR2 / Fold change vs veh, DGCR2 / RFU, WDSUB1 / Fold change vs veh, WDSUB1 / Fold change vs veh, HSP90B1 /// MIR3652 / RFU, ADSS / Fold change vs veh, ADSS / RFU, GK / Fold change vs veh, GK / RFU, ZNF148 / Fold change vs veh, ZNF148 / RFU, TAF9 / Fold change vs veh, TAF9 / RFU, SLC1A5 / Fold change vs veh, SLC1A5 / RFU, SLMO2 / Fold change vs veh, SLMO2 / RFU, ABCC4 / Fold change vs veh, ABCC4 / RFU, LOC101060439 /// RAP1B / Fold change vs veh, LOC101060439 /// RAP1B / RFU, RFX7 / Fold change vs veh, RFX7 / RFU, GTPBP10 / Fold change vs veh, GTPBP10 / RFU, CNEP1R1 / Fold change vs veh, CNEP1R1 / RFU, BIVM-ERCC5 /// ERCC5 / Fold change vs veh, BIVM-ERCC5 /// ERCC5 / RFU, ILF3 / Fold change vs veh, ILF3 / RFU 11762660_at / Fold change /veh 11762660_at / RFU VCAN (11757783_s_at) / Fold change /veh VCAN (11757783_s_at) / RFU DDX43 (11728927_at) / Fold change /veh DDX43 (11728927_at) / RFU KRT8 (11758188_x_at) / Fold change /veh KRT8 (11758188_x_at) / RFU NKD1 (11759106_at) / Fold change /veh NKD1 (11759106_at) / RFU SRD5A1 (11742802_a_at) / Fold change /veh SRD5A1 (11742802_a_at) / RFU TPSAB1 /// TPSB2 (11721975_s_at) / Fold change /veh TPSAB1 /// TPSB2 (11721975_s_at) / RFU GSTM3 (11746129_a_at) / Fold change /veh GSTM3 (11746129_a_at) / RFU IL23R (11737362_x_at) / Fold change /veh IL23R (11737362_x_at) / RFU TMEM51 (11727254_a_at) / Fold change /veh TMEM51 (11727254_a_at) / RFU PIWIL2 (11732686_x_at) / Fold change /veh PIWIL2 (11732686_x_at) / RFU ORM1 (11744905_x_at) / Fold change /veh ORM1 (11744905_x_at) / RFU CCDC152 (11743942_at) / Fold change /veh CCDC152 (11743942_at) / RFU ECM1 (11717891_a_at) / Fold change /veh ECM1 (11717891_a_at) / RFU IL23R (11748794_a_at) / Fold change /veh IL23R (11748794_a_at) / RFU TNFAIP8L3 (11732012_x_at) / Fold change /veh TNFAIP8L3 (11732012_x_at) / RFU MBOAT4 (11741988_at) / Fold change /veh MBOAT4 (11741988_at) / RFU 11764193_at / Fold change /veh 11764193_at / RFU TMEM53 (11763286_at) / Fold change /veh TMEM53 (11763286_at) / RFU MAGEB2 (11727129_at) / Fold change /veh MAGEB2 (11727129_at) / RFU TMEM200A (11744735_a_at) / Fold change /veh TMEM200A (11744735_a_at) / RFU CCDC152 (11751479_a_at) / Fold change /veh CCDC152 (11751479_a_at) / RFU FAM211A (11726209_a_at) / Fold change /veh FAM211A (11726209_a_at) / RFU RGS16 (11746705_a_at) / Fold change /veh RGS16 (11746705_a_at) / RFU VCAN (11755009_s_at) / Fold change /veh VCAN (11755009_s_at) / RFU RHOB (11743442_s_at) / Fold change /veh RHOB (11743442_s_at) / RFU RGS16 (11720943_a_at) / Fold change /veh RGS16 (11720943_a_at) / RFU RGS16 (11720944_at) / Fold change /veh RGS16 (11720944_at) / RFU, VPS4B / Fold change vs veh, VPS4B / RFU, CREB1 / Fold change vs veh, CREB1 / RFU, DNAJC13 / Fold change vs veh, DNAJC13 / RFU, GNAQ / Fold change vs veh, GNAQ / RFU, CDK5R1 / Fold change vs veh, CDK5R1 / RFU, ZRANB3 / Fold change vs veh, ZRANB3 / RFU, CUL4A / Fold change vs veh, CUL4A / RFU, CCNY / Fold change vs veh, CCNY / RFU, UFL1 / Fold change vs veh, UFL1 / RFU, COG3 / Fold change vs veh, COG3 / RFU, DIAPH2 / Fold change vs veh, DIAPH2 / RFU, SKA2 / Fold change vs veh, SKA2 / RFU, AFF3 / Fold change vs veh, AFF3 / RFU, LMF1 / Fold change vs veh, LMF1 / RFU, IPO11 / Fold change vs veh, IPO11 / RFU, DFFB / Fold change vs veh, DFFB / RFU, FOXP1 / Fold change vs veh, FOXP1 / RFU, CARD8 / Fold change vs veh, CARD8 / RFU, STRN3 / Fold change vs veh, STRN3 / RFU, ADK / Fold change vs veh, ADK / RFU, RASSF2 / Fold change vs veh, RASSF2 / RFU, WIPF1 / Fold change vs veh, WIPF1 / RFU, LARP1B / Fold change vs veh, LARP1B / RFU, RASA1 / Fold change vs veh, RASA1 / RFU, RB1 / Fold change vs veh, RB1 / RFU, PPFIA1 / Fold change vs veh, PPFIA1 / RFU, MAT2A / Fold change vs veh, MAT2A / RFU, CCT5 / Fold change vs veh, CCT5 / RFU, WDR92 / Fold change vs veh, WDR92 / RFU, CUX1 / Fold change vs veh, CUX1 / RFU, TTC7A / Fold change vs veh, TTC7A / RFU, TMEM135 / Fold change vs veh, TMEM135 / RFU, DEPTOR / Fold change vs veh, DEPTOR / RFU, CPM / Fold change vs veh, CPM / RFU, DNAJB6 / Fold change vs veh, DNAJB6 / RFU, CACNA2D3 / Fold change vs veh, CACNA2D3 / RFU, DTX4 / Fold change vs veh, DTX4 / RFU, TFCP2 / Fold change vs veh, TFCP2 / RFU, GMCL1 /// GMCL1P1 / Fold change vs veh, GMCL1 /// GMCL1P1 / RFU, AEBP2 / Fold change vs veh, AEBP2 / RFU, SNHG1 /// SNORD22 /// SNORD25 /// SNORD26 /// SNORD27 /// SNORD28 /// SNORD29 /// SNORD31 / Fold change vs veh, SNHG1 /// SNORD22 /// SNORD25 /// SNORD26 /// SNORD27 /// SNORD28 /// SNORD29 /// SNORD31 / Fold change (Aza/veh), C12orf56 (ProbeSet 11735607_a_at) / Fold change (ACY-1035/veh), C12orf56 (ProbeSet 11735607_a_at) / Fold change (Aza/veh), FGFR1OP (ProbeSet 11751329_s_at) / Fold change (ACY-1035/veh), FGFR1OP (ProbeSet 11751329_s_at) / Fold change (Aza/veh), VPS36 (ProbeSet 11739960_a_at) / Fold change (ACY-1035/veh), VPS36 (ProbeSet 11739960_a_at) / RFU SYPL1 (11715823_x_at) / Fold change /veh SYPL1 (11715823_x_at) / RFU IGFBP7 (11715501_s_at) / Fold change /veh IGFBP7 (11715501_s_at) / RFU REEP3 (11722064_at) / Fold change /veh REEP3 (11722064_at) / RFU IGLL1 (11728026_x_at) / Fold change /veh IGLL1 (11728026_x_at): dose or concentration left out as unconfirmed
Conditions: MV-4-11 cells, 48 hours

Nc1ccc(-c2cccs2)cc1NC(=O)c1ccc2c(c1)cc(C1CC1)n2CCN1CCOCC1 [ACY-1035]
RFU TMEM53 (11763286_at): 16.39 RFU
